Row | melting point | SMILES
1 | > 330 °C | COc1cc2c(cc1OC)-c1[nH]c3ccc([N+](=O)[O-])cc3c1CC(=O)N2 [98 N 356, 2,3-Dimethoxy-7,12-dihydro-9-nitro-indolo[3,2-d][1]benzazepin-6(5H)-one(2,3-dimethoxy-9-nitropaullone)]
2 | > 330 °C | COc1cc2c(cc1OC)-c1[nH]c3ccc(C#N)cc3c1CC(=O)N2 [98 N 217, 2,3-Dimethoxy-6-oxo-5,6,7,12-tetrahydro-indolo [3,2-d][1]benzazepin-9-carbonitrile(9-cyano-2,3-dimethoxypaullone)]
3 | > 330 °C | O=C1Cc2c([nH]c3ccc([N+](=O)[O-])cc23)-c2cc(Br)ccc2N1 [98 N 354, 2-Bromo-7,12-dihydro-9-nitro-indolo[3,2-d][1]benzazepin-6(5H)-one(2-bromo-9-nitropaullone)]
